# Data from patent US9066938B2, “GPBP-1 inhibition and its therapeutic use” (Fibrostatin S.L., priority 2012, dated 2015).
# Where a name gives a salt, the structure may show the parent alone.
# What was measured:
# [1] = system: cell cycle-related genes in A549 cells; assay: Cell Cycle RT2 Profiler PCR Array in A549 cells; type: cell-based, human; conditions: doxorubicin 1 μM or T12 50 μM, 24 h
# Description: FIG. 6. T12 and doxorubicin activate cell cycle-related genes in a similar fashion. A549 cells were treated doxorubicin (1 μM) or T12 (50 μM) for 24 h. Total RNA was purified, reverse-transcribed and subjected to Cell Cycle RT^2 Profiler PCR Array. A, shown are logarithmic scatter plots of relative mRNA levels of treated vs untreated cells. […] B, shown are bar plots of the relative expression (RQ) of the over-expressed genes indicated in A. Results are shown in fold expression respect to untreated cells.
# RNA was purified from cells using the Ilustra RNAspin Mini (GE Healthcare) and the cDNA was prepared using RT^2 First Strand™ cDNA kit (Qiagen). The cDNA from treated or untreated cells was used to screen the Cell Cycle RT^2 Profiler™ PCR Array for human (PAHS-020Z, Qiagen), following manufacturer's procedures (Qiagen). qPCR was performed using RT^2 SYBR® Green ROX™ qPCR Mastermix (Qiagen) and the StepOnePlus™ Real-Time PCR System (Applied Biosystems). qPCR data were analyzed using manufacturer software.
# [2] = system: CSC/SP compartment of A549 cell cultures; assay: Side population (CSC/SP) staining with Hoechst 33342, flow cytometry; type: cell-based, human; conditions: for cell content of the CSC/SP compartment: single compound
# Description: FIG. 9. […] A, cultures of A549 cells were incubated with Hoescht 33342 in the absence (−) or presence (+) of verapamil (50 μM) and fumitremorgin C (10 μM). Circled area (R2) denotes the region containing the flow cytometry events representing CSC/SP cells. B, shown are the relative abundance of CSC/SP cells (%) in cell cultures untreated (control) or treated with the indicated compounds.
# A549 cells were suspended at 10^6 cells/mL in culture medium containing 10 mM Hepes (previously warmed at 37° C.). Hoechst 33342 was added at 5 μg/mL and cells incubated in a 37° C. bath with shaking for 90 min in the dark. Before incubation (and after staining) an aliquot of 1 mL was taken and verapamil (50 μM) and fumitremorgin C (10 μM) added. Cells were centrifuged at 300×g for 5 min at 4° C. and suspended in cold medium with 10 mM Hepes. Cells were kept at 4° C. until analysis. Analysis of Hoechst 33342 efflux was assessed using a Flow Cytometer with incident 350 nm ultraviolet light. The resulting fluorescence was measured at two wavelengths using 424/44 BP and 675 LP filters that allow detection of Hoechst blue and red, respectively. […] Doxorubicin content in either population was estimated with incident 488 nm blue light and 585/40 filter. Verapamil and fumitremorgin C werer used to identify SP region.
# [3] = system: A549 xenografts; assay: Mouse xenograft study with A549 tumors; type: in vivo, nude mice; conditions: for tumor growth, single compound: doxorubicin 2.5 mg/kg per week i.p. or T12 20 mg/kg per day in drinking water, three weeks
# Description: FIG. 11. T12 and doxorubicin are synergistic arresting growth of A549-based tumors. Nude mice bearing A549 xenografts were treated with the indicated compounds as indicated in Methods and Experimental Design. Indicated are the tumor size at the indicated times. […] FIG. 12. T12 and doxorubicin are synergistic necrotizing A549-based tumors. Tumor samples from mice used in FIG. 11 were fixed in formalin, paraffin-embedded, subjected to Masson's trichrome staining and observed by optical microscopy. Necrotic areas are indicated with asterisks. Shown are representative images. FIG. 13. […] Ten-week old nude mice (NMRi-Foxn1^nu/Foxn1^nu) (Janvier) were used for xenograft studies. Three-million A549 cells were suspended in 100 μL of culture medium, mixed with 200 μL Matrigel (BD) and subcutaneously injected on the flank of individual mouse (n=40). Tumor size was periodically measured with a digital caliper and volumes were calculated with the formula […]. […] After three weeks mice were sacrificed, tumor xenografts excised and either fixed with formalin and paraffin-embedded or frozen and RNA extracted. Sections of paraffin-embedded tumor samples were subjected to hematoxylin and eosin and Masson's trichrome standard stainings. Frozen tumor samples were ground with a mortar in liquid nitrogen and total RNA extracted as above indicated.
# [4] = system: JLSM cells; assay: Cell viability of JLSM primary cultures (lung epidermoid carcinoma); type: cell-based, human; conditions: 36 h
# Description: FIG. 14. T12 sharply reduce JLSM cell viability. A and B, JLSM cells were seeded (10.000 cells per cm^2) on collagen-I coated 96-well culture plate. Cells were settled for 4 h and subjected to the indicated treatments and cellular viability assayed after 36 h. Control bars represent cells without T12 or […]. JLSM cells were obtained from a human lung epidermoid carcinoma biopsy following standard procedures. […] Subsequently, explants were further incubated with 1 mL per well of serum-free B-ALITM air-liquid interface medium from CloneticsTM (B-ALI medium). When cells started to grow, explants were removed and cells passed to a collagen I coated flask with fresh medium. Cultures were kept in a humidified 37° C. incubator with 5% (v/v) CO2 and 95% (v/v) air. Cytotoxicity assays were performed with alamarBlue® reagent (Invitrogen) according to manufacturer's instructions. A549 cells were seeded on 96-well culture plates (7,500 cells/well) and allowed to settle during 4 h. Then, cells were cultured with individual peptidomimetics at concentrations ranging from 0 to 50 μM, in presence of doxorubicin at concentrations ranging from 0 to 10 μM for 36 h. […] Fluorescence was measured using 560EX nm/590EM nm filter settings with a SpectraMax […] […] Blank wells containing media were used to determine background fluorescence.
# [5] = system: GPBP expression in A549 cells; assay: GPBP expression in A549 cells after treatment; type: cell-based, human
# Description: A549 cells treated for 4 weeks with 1 μM doxorubicin (A549-DR). Fifty μg of cellular lysates of A549 and A549-DR cells were analyzed by Western blot to assess the levels of GPBP using GPBP-specific mAb N27. Tubulin was stained with specific antibodies and used as loading control.
# This was assessed by selecting A549 cells with doxorubicin and analyzed GPBP expression by Western blot (FIG. 15).
# [6] = 2.5 mg/kg/week doxorubicin and 20 mg/kg/day T12, three weeks
SMILES,"expression of CDKN1A (p21), GADD45A, MDM2 and SERTAD1 [1]",cell content of the CSC/SP compartment [2],"tumor growth, single compound [3]","biological activity on JLSM primary cultures, single compound [4]",GPBP expression in A549 cells in response to treatment [5],"CSC/SP compartment relative to untreated cultures, co-treatment ([2]; doxorubicin and T12 co-treatment)","matrix metalloproteinase 10 (MMP-10) expression in tumors, combined treatment ([3]; 2.5 mg/kg/week doxorubicin and 20 mg/kg/day T12, qPCR)","necrotic areas within the tumors, combined treatment [3, 6]","tumor growth, combined administration [3, 6]"
"COc1cccc2c1C(=O)c1c(O)c3c(c(O)c1C2=O)C[C@@](O)(C(=O)CO)C[C@@H]3O[C@H]1C[C@H](N)[C@H](O)[C@H](C)O1 [doxorubicin, doxorubicin hydrochloride, reference compound]",up-regulated,reduction,did not impaired tumor growth,virtually resistant,increased GPBP cell expression,,,,
"COc1ccc(-c2ccc(-c3cccc(C)c3)c(C)c2)c(CCC(=O)O)c1 [T12, 3-[4″-methoxy-3,2′-dimethyl-(1,1′;4′,1″)terphenyl-2″-yl] propionic acid]",up-regulated,reduction,did not impaired tumor growth,highly sensitive,no evidence for increased expression of GPBP,one fourth,lower levels,more extensive,tumor arrest
